The conditions of data set [1]: cited from earlier work.
The test system of a further data set is A549 cells. Nature of the data set: Doxorubicin accumulation assay, A549. Particulars: 50 µM DOXO and 1.56 µM GLIM, 3 h. It counts as cell-based, human. As for the experimental part:
Cells were seeded at a density of 2 × 10^4 cells per well in black 96-well plates as described in Section 3.6.

Another data set concerns multiple cell lines. Further details: method as in Alkhalil et al. and others [10,11,16,26]. Conditions: range reported; ref Alkhalil et al. and others [10,11,16,26]; read-out: cytotoxicity (IC50 range over cell lines), literature; cited from earlier work.
Details of data set [2]: method as in Figure S2 [39–71]. Conditions: ref Figure S2 [39–71]; cited from earlier work.
The nature of data set [3]: Analysis of drug solubility (Cobs by HPLC). Format: physicochemical. As for the experimental part: The drug content in the samples was determined using a previously described HPLC method. The analysis was performed on an Ultimate 3000 HPLC system (Dionex Co., Germering, Germany), equipped with a UV–Vis detector and a TSKgel ODS-100V column (particle size: 5 µm; dimensions: 4.6 mm i.d. × 15 cm; Tosoh Co., Tokyo, Japan). The mobile phase consisted of MeCN and 20 mM KH2PO4 buffer (pH 3.0) in an appropriate ratio. The flow rate was maintained at 1.0 mL/min, with the column temperature set to 30 °C. All compounds were detected at 228 nm.
Some samples included 0.05% (v/v) Tween-80. For experiments involving BSA, a separate solution was prepared by dissolving 4.5 mg/mL of BSA (cat. #422381B, VWR) in the same PBS (pH 7.4), with or without 0.05% (v/v) Tween-80. All samples were incubated at 37 °C with shaking for 24 h. After incubation, the samples were either centrifuged at 13,500 rpm (RCF = 12,225 g) for 15 min using a Micro Star 12 microcentrifuge (VWR), and 150 µL of the supernatant was collected for HPLC analysis, or filtered using 0.22 µm PVDF syringe filters (13 mm i.d., cat. #514-1251, VWR) or AcroPrep™ Advance 96-well filter plates (Pall Corporation, Dreieich, Germany) with various molecular weight cut-offs.

Data set [4] in a line: MTT cytotoxicity, range over the cell panel. It counts as cell-based. Particulars: human; range over the tested cell lines; read-out: cytotoxicity (IC50 range over cell lines), our study.
Experimental: HMEC-1, an immortalized human microvascular endothelial cell line, was used as a model for normal cells.
(§1) The cancer cell lines were cultured in Dulbecco’s Modified Eagle’s Medium (DMEM; Sigma-Aldrich) supplemented with 10% FBS and 1% penicillin/streptomycin mixture (10,000 U/mL penicillin and 10 mg/mL streptomycin; Sigma-Aldrich) at 37 °C in a humidified atmosphere with 5% CO2.
(§2) For the MTT assay, exponentially growing cells were seeded into 96-well plates at a density of 5 × 10³ cells per well. After 24 h of incubation, the medium was replaced with 100 µL of fresh medium containing the tested compounds. After 72 h of treatment, cell viability was assessed using the MTT assay as described earlier. […] IC50 values were calculated using GraphPad Prism 9 software (GraphPad Software).
Another data set concerns HuH7 cells. In words: MTT cytotoxicity / synergy assay, 72 h, HuH7. Conditions: Homo sapiens, Huh-7, 72 h, read-out: IC50 Value in Specific Cell Line, HuH7.
The next data set concerns U-87MG cells. Nature of the data set: MTT cytotoxicity / synergy assay, 72 h, U-87MG. Format: cell-based. Conditions: Homo sapiens, n.d. = IC50 not achieved within concentrations tested, read-out: IC50 Value in Specific Cell Line, U-87MG.
Data set [5] is described as follows: Hemolysis (Drabkin's method). It counts as cell-based. Particulars: human, washed erythrocyte (RBC) suspension, 40% hematocrit, pH 7.4, single drug, RT, dark, CTRL− 11.6%. As for the experimental part:
Blood samples were collected from healthy human volunteers into Vacutainer tubes containing 3% sodium citrate (BD Biosciences, Warsaw, Poland). Whole blood was centrifuged at 1500 rpm (RCF = 214 g) for 10 min in a CompactStar CS4 centrifuge (VWR) at RT to separate erythrocytes, which were washed twice with PBS (pH 7.4) and centrifuged at 1500 rpm for 5 min at RT after each wash. Hematocrit was measured to adjust the final RBC concentration in PBS (pH 7.4) to 40%. The drugs were then dissolved in the RBC suspension at the final concentrations outlined in Figure 8. RBCs incubated in dH2O were used as a positive control (100% hemolysis), while RBCs in PBS were used as the negative control. A blank sample of PBS without RBCs or drugs provided a baseline for absorbance measurements. Experimental samples, along with positive, negative, and vehicle (0.5% DMSO) controls, were incubated for 4 h at RT in the dark. After incubation, the samples were centrifuged at 1500 rpm for 5 min at RT, and the supernatant was collected to measure hemoglobin release using Drabkin’s method. Absorbance was measured at 540 nm with a Jenway 6305 UV/Vis spectrophotometer (Bibby Scientific, Staffordshire, UK). This study was conducted in triplicate. The percentage of hemolysis was calculated by comparing the absorbance at 540 nm (OD540) of the test sample with that of the positive control using the following formula:(2) % Hemolysis=OD540Test−OD540(Blank)/OD540Total Lysis−OD540(Blank)×100%

In the next data set the test system is HepG2 cells. Nature of the data set: MTT cytotoxicity / synergy assay, 72 h, HepG2. Conditions: Homo sapiens, HepG2, 72 h, read-out: IC50 Value in Specific Cell Line, HepG2, MTT, 72 h; n.d. = IC50 not achieved within concentrations tested.
In another data set the test system is HSA. Further details: method as in Figure S2 [39–71]. Particulars: ref Figure S2 [39–71]; cited from earlier work.
For data set [6] the following is noted: cited from earlier work. The source holds these as a separate data set.
The subject of another data set is 4T1 tumors. In words: 4T1 breast cancer in BALB/c mice. It counts as in vivo. Particulars: GLIM alone 4 mg/kg i.p. As for the experimental part:
Six- to eight-week-old female BALB/c mice (Charles River Breeding Laboratories, Wilmington, MA, USA) were bred at the Maria Sklodowska-Curie National Research Institute of Oncology, Gliwice Branch (Gliwice, Poland), under a HEPA-filtered Allentown's IVC System (Allentown Caging Equipment Co., Allentown, NJ, USA). All efforts to minimize animal suffering were made by qualified personnel. This study was carried out in strict accordance with the recommendations in the Guide for the Care and Use of Laboratory Animals of the National Institutes of Health. The protocols were approved by the Committee on the Ethics of Animal Experiments of the Local Ethics Commission (Medical University of […], Poland; Permit No. 22/2024). BALB/c mice were injected subcutaneously in the lower flank with 2 × 10^5 4T1 cells suspended in 100 μL PBS. […] Each treatment was administered a total of five times.

Data set [7] is described as follows: DLS particle size measurements. Format: physicochemical. As for the experimental part:
Dynamic light scattering (DLS) measurements were performed using a Zetasizer Nano ZS instrument (Malvern Instruments, Malvern, UK). Samples of 2 mL were placed in disposable PMMA cuvettes (cat. #634-0677; VWR, Gdańsk, Poland) and measured at 37 °C. To ensure accuracy, each sample was measured at least three times. The data were processed using DTS v6.2 software (Malvern Instruments).

In brackets after ≈: the same amount, converted by molar mass.

Experimental for HepG2 cells: (§3) The synergistic effects of drug combinations were studied in various cancer cell lines, including MCF-7 (human breast cancer), A549 (human lung cancer), U-87 MG (human malignant glioma), HepG2 (human liver cancer), and HUH7 (human liver cancer). HMEC-1, an immortalized human microvascular endothelial cell line, was used as a model for normal cells. All cell lines were purchased from ATCC (Rockville, MD, USA).
as §1, §2
Experimental for HuH7 cells: as §3, §1, §2
Experimental for U-87MG cells: as §3, §1, §2

As for `CCC1=C(C)CN(C(=O)NCCc2ccc(S(=O)(=O)NC(=O)N[C@H]3CC[C@H](C)CC3)cc2)C1=O` [GLIM, Glimepiride], in [1], the logP (as a rule, a log measure of how a compound divides between an organic and an aqueous phase) is on record as 3.81. For the same compound, the “increase in DOXO level compared to DOXO monotherapy” value in the data set on A549 cells is 227%. Besides, the IC50 – broadly, the midpoint of a concentration-inhibition curve – with multiple cell lines was 89.4 to 426 µM; in the data set with HuH7 cells, 476 ± 7 µM; in the data set on U-87MG cells, 186 µM; in the data set on HepG2 cells, 177 µM. For the same compound, the solubility (in general, the dissolved amount per volume that the medium holds) in data set [2] was 12.2 µM (≈ 5.99 µg/mL). Also, in data set [3] (GLIM only in PBS pH 7.4, 37 °C, 24 h, centrifugation), the “concentration up to which Cobs matches the expected concentration” value is “up to 100 µM”. Further, the “observed concentration (Cobs)” value in data set [3] (GLIM only, 0.22 µm syringe filters, all tested samples) is 8.6 to 16.6 µM. Also, in data set [3] (PBS, pH 7.4, aqueous buffer, read-out: observed concentration (Cobs) above the threshold), the solubility kinetic at 24 h was approximately 5 µM (≈ 2.45 µg/mL). The IC50 at 72 h in [4] lay within 135 to 473 µM. Moreover, in data set [5], the hemolysis at 4 h fell in the range of 11.2 to 11.9%. In addition, the “nKa (global affinity constant, HSA)” value in the data set on HSA is 910000 M⁻¹. For the same compound, the protein-bound in plasma in data set [6] was 99.4%. Further, the “body weight compared to controls” value in the data set with 4T1 tumors is recorded as “no significant change in body weight”. The “tumor size compared to untreated controls” value in the data set on 4T1 tumors is “no reduction in tumor size”. Besides, in [7] (PBS pH 7.4, 37 °C, […] BSA, GLIM beyond 200 µM), the “d¯I of drug aggregates” value is on record as “approx. 353 nm”. For the same compound, the diameter of aggregates entry in data set [7] (absence of BSA, buffers and culture media) is reported as “over 300 nm”.

The record behind these values is paper PMC11855866 (International Journal of Molecular Sciences, 2025).
